Four compounds from US20170050988A1, “DOTAM DERIVATIVES FOR THERAPEUTIC USE” (priority 2013, published 2017) can be followed below.

Starred links: 1 amine or outer side, 2 acyl side, 3 side chain; linkers in the order of their positions; H or OH if unused. Positions of bridges follow the written chain, without caps; N, C: chain ends. Non-standard residues stand in square brackets, D forms with d. Residues, ends and D or L forms follow the SMILES beside them. Chains are numbered I, II in the order given. *: point of attachment. X3 = NCCOCCOCCNC(=O)CN1CCN(CC(=O)NCCOCCOCCN[*:1])CCN(CC(=O)NCCOCCOCCN)CCN(CC(=O)NCCOCCOCCN[*:2])CC1; X2 = CC(C)C[C@H](N[*:1])[C@H](O)CC(=O)[*:2]; Sta = CC(C)C[C@H](N)[C@@H](O)CC(=O)O; Isovaleryl = CC(C)CC(=O)* A value given as a limit tells only on which side of the number the result lay.

One data set addresses T1, Cathepsin D (Homo sapiens, UniProt P07339).
T1 construct: purchased Biomol Se-199
The data set is described as follows: Cathepsin D enzyme assay. The class given is biochemical. As for the experimental part: For quantification of Cathepsin D inhibitory activity, an enzymatic assay was used that measures the turnover of a quenched, fluorescenctly-labeled, Cathepsin D-cleavable, peptide substrate over time.
Specifically, 13 ng of purified Cathepsin D enzyme (Biomol; Cat.No. Se-199) was administered per well of a 96 well plate, substance/inhibitor of interest was added and the mixture incubated for 10 min. at 37° C. Then, the enzymatic reaction was started by addition of fluorescenctly-labeled, Cathepsin D-Substrat ([…] (7-Methoxycoumarin-4-yl)-acetyl-Pro-Leu-Gly-Leu-(3 [2,4-dinitrophenyl]-L-2,3-diaminopropionyl)-Ala-Arg-NH2 (Bachem M-1895). The reaction volume amounts to 30 μl and contains 50 mM acetic acid, 200 mM NaCl and 0.003% Brij 35 and was adjusted to pH 4.5 with acetic acid. By cleavage of the peptide chain, the […] is released and the emission of fluorescence dye is measured using excitation/emission wavelengths ([…]) on a Tecan Spectrafluor Plus—instrument at 37° C. for 10 min. For the determination of the compound dose response, a 10 mM DMSO stock solution was diluted and tested in a ten-point, three-fold dilution series run in duplicate beginning at 30 μM final concentration. Data were analyzed using a four-parameter curve fit with a fixed minimum and maximum experimentally defined as the average positive and negative controls on each plate.

A short description of data set [1]: Solubility in phosphate buffer. The class given is physicochemical. The conditions noted are these: phosphate buffer at pH 7.4; read-out: solubility.
The test system of data set [2] is pig articular cartilage explants. In words: Ex vivo GAG release model with pig articular cartilage explants. The conditions noted are these: explants pre-incubated with 1 μM inhibitor 24 h, then washed. Format: cell-based.
Data set [3] is described as follows: Solubility in DMSO after lyophilization. Format: physicochemical. Here is the method: 1 equiv. […] DIPEA (10 λl, 60 μmol). The reaction mixture was stirred under argon at room temperature for 2 days. The solvent was directly purified by preparative HPLC to give HHY-328 (4.3 mg, Yield: 22.6%) as a white powder.
Data set [4] is described as follows: T1 of contrast agent in DPBS. The conditions noted are these: 0.2 mM in DPBS. Format: physicochemical. Here is the method: To explore the potential of cartilage targeting agents as practical MRI contrast agents for accurate diagnostic imaging, we investigated HHY-316Gd in vivo with healthy rats. As an essentially non-binding control, contrast agent HHY-341Gd (T1=1368±10 ms, 0.2 mM in DPBS) with the non-binding scrambled peptide sequence YRLGRW and acetylated amine groups was used as reference. MRI was performed using a 4.7 T Bruker BioSpec whole body MR imager. Male skeletally mature Lewis rats were anesthetized (by Isoflurane), fixed in supine position and both knees were placed within a transmitting/receiving wrist coil. […] In the HHY-316Gd applied knees there is a significant MRI signal enhancement of the articular and growth plate cartilages which consist principally of collagen II and proteoglycan. The signal intensity (SI) in the articular cartilage and growth plate increased 86% and 77% after 24 hours following administration of HHY-316Gd and increased 84% and 85% at 72 hours after intra-articular injection, respectively (FIGS. 6-11). […]
To assist histological examination of joint slices after termination of the study, we decided to co-administer a second probe, HHY-338 (T1=11493±27 ms, 0.2 mM in DPBS), containing a Cy5.5 moiety. […] Chondrophyte/osteophyte regions were examined in sections stained with safranin O/fast green and recorded using a Zeiss Miraxscan microscope (FIG. 12b).

T1 sequence (P07339 65-412): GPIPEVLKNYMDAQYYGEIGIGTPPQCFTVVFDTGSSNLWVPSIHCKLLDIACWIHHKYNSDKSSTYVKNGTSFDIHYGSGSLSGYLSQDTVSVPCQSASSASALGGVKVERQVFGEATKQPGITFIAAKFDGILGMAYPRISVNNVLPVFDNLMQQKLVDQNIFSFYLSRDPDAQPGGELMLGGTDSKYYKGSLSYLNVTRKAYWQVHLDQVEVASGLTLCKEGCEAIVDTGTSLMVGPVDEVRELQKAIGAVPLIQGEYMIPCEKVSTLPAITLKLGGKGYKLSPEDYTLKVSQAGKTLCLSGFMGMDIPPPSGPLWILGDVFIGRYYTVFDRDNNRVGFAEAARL

The IC50 is the concentration that inhibits the measured activity by half. A lower IC50 goes with greater potency. For orientation: solubility means how much of the substance goes into solution per volume. `CC(=O)N[C@@H](Cc1c[nH]c2ccccc12)C(=O)N[C@@H](Cc1ccc(O)cc1)C(=O)N[C@@H](CCCNC(=N)N)C(=O)NCC(=O)N[C@@H](CCCNC(=N)N)C(=O)N[C@@H](CC(C)C)C(=O)NCCOCCOCCNC(=O)CN1CCN(CC(=O)NCCOCCOCCN)CCN(CC(=O)NCCOCCOCCNC(=O)C[C@@H](O)[C@H](CC(C)C)NC(=O)[C@H](C)NC(=O)C[C@H](O)[C@H](CC(C)C)NC(=O)[C@@H](NC(=O)[C@@H](NC(=O)CC(C)C)C(C)C)C(C)C)CCN(CC(=O)NCCOCCOCCN)CC1` [HHY-327, AcWYRGRL-DOTA-Pepstatin A] (I: Ac-WYRGRL / II: Isovaleryl-VV[Sta]A[X2]; linker I:C-II:C via X3) came in with an IC50 on Cathepsin D of 2.1 nM. Also, in data set [1], the solubility is over 5920 µg/mL. The “inhibition of GAG release” value is on record as 41% in data set [2] (24 hours after stimulation at pH 5.0) and “no differentiating effect” in data set [2] (48 hours after stimulation at pH 5.0). Moreover, the “effect on acid-stimulated GAG release / degradation (FIG. 3)” value in data set [2] (pH 5.0) was “very impressive effect”.

AcWYRGRL-DOTA-(Pepstatin A)3 [HHY-328]: in data set [3], the “solubility in DMSO” value is “only slightly soluble”.

Compound AcWYRGRL-DOTA-Cy5.5-[Gd3+] [HHY-338] yielded a T1 in data set [4] of 11493 ± 27 ms.

As to AcYRLGRW-DOTA-[Gd3^+] [HHY-341Gd], the T1 in data set [4] is 1368 ± 10 ms.
